The data set can be described thus: Interaction of perfume components with cyclodextrin (CD interaction). It is filed as physicochemical. To be noted: perfume component versus cyclodextrin. The source says: Hydrophobic perfume ingredients have a tendency to complex with the cyclodextrins. The degree of hydrophobicity of a perfume ingredient can be correlated with its octanol/water partition coefficient P. The octanol/water partition coefficient of a perfume ingredient is the ratio between its equilibrium concentration in octanol and in water. A perfume ingredient with a greater partition coefficient P is considered to be more hydrophobic. Conversely, a perfume ingredient with a smaller partition coefficient P is considered to be more hydrophilic. […].
The following table illustrates the molecular weight property of some of the preferred perfume versus non-preferred perfume components.

Take `CC(C=O)Cc1ccc(C(C)C)cc1` (stereo not shown) [Cymal]: the CD interaction entry is “strong”.

Take `CCOC(=O)c1ccccc1C(=O)OCC` [Diethyl Phthalate]: the CD interaction entry is on record as “weak”. The value for `CC(=O)OC1CC2CC1C1CC=CC21` (stereo not shown) [Flor Acetate] was “strong”; that for `CCC(=O)OC1CC2CC1C1CC=CC21` (stereo not shown) [Frutene] was “strong”; that for `CC1COCc2cc3c(cc21)C(C)(C)C(C)C3(C)C` (stereo not shown) [Galaxolide] was “weak”. Turning to `CCCCCCOC(=O)c1ccccc1O` [Hexyl Salicylate], the CD interaction result was “weak”.

`CCCCCCC(C=O)=Cc1ccccc1` [Hexyl cinnamic Aldehyde]: the CD interaction entry is “weak”. Take `CC(=O)C1(C)CC2=C(CCCC2(C)C)CC1C` (stereo not shown) [Iso-E Super]: the CD interaction entry was “weak”.

With `CCCCCCCCCCCCCC(=O)OC(C)C` [Iso-propyl Myristate], the CD interaction entry is “weak”.

In the case of `CC(=O)C(C)=C(C)C(C)C(C)(C)C` (stereo not shown) [Koavone], the CD interaction result is listed as “strong”. Consider `CC(C=O)Cc1ccc(C(C)(C)C)cc1` (stereo not shown) [Lilial, p-t-bucinal], for which the CD interaction entry is reported as “strong”. For `CC(C)(O)CCCC1=CCC(C=O)CC1` (stereo not shown) [Lyral], the CD interaction entry is on record as “weak”.

On to `CCCCCC1C(=O)CCC1CC(=O)OC` (stereo not shown) [Methyl Dihydro Jasmonate], for which the CD interaction result was “weak”. With `O=C(Cc1ccccc1)OCCc1ccccc1` [Phenyl-Ethyl-Phenyl Acetate] the entry was “weak”; with `CC(=O)OC(C)(C)C1CC=C(C)CC1` (stereo not shown) [Terpinyl Acetate], “significant”; with `CCC(C)(O)CCCC(C)C` (stereo not shown) [Tetrahydrolinalol], “significant”. With `CC(=O)OC1CCC(C(C)(C)C)CC1` (stereo not shown) [Vertenex, para-tert-butylcyclohexyl acetate] the entry was “strong”.

`CC(=O)/C=C/C1C(C)=CCCC1(C)C` (stereo not shown) [a-ionone]: the CD interaction result was “strong”. The value for a-Me Ionone was “strong”.
